{"source": "patent US20250195521A1", "about": "(Revolution Medicines, Inc., priority 2020, published 2025)", "key": {"[1]": {"target": "NRAS G12C binding to BRAF RBD (Homo sapiens (Human), UniProt P01111+P62937, G12C)", "sequence (P01111 whole entry G12C)": "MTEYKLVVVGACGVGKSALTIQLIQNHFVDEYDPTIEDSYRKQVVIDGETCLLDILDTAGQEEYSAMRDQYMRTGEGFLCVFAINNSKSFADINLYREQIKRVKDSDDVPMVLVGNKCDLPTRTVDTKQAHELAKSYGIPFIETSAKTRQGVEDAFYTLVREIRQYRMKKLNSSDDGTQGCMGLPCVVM", "sequence (P62937 whole entry)": "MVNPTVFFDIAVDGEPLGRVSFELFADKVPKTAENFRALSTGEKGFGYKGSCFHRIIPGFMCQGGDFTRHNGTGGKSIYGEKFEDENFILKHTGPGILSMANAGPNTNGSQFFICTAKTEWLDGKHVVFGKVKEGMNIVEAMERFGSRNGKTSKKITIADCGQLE", "test": "Ras-Raf disruption/FRET/MOA assay, NRAS G12C", "format": "biochemical", "text": "(§1) Note—The following protocol describes a procedure for monitoring disruption of K-Ras G12C(GMP-PNP) binding to BRAF^RBD by a compound of the invention. This protocol may also be executed substituting other Ras proteins or nucleotides.\n(§2) The purpose of this biochemical assay was to measure the ability of test compounds to facilitate ternary complex formation between a nucleotide-loaded K-Ras isoform and Cyclophilin A; the resulting ternary complex disrupts binding to a BRAF^RBD construct, inhibiting K-Ras signaling through a RAF effector. Data is reported as IC50 values.\n(§3) Compound was present in plate wells as a 10-point 3-fold dilution series starting at a final concentration of 30 μM. After incubation at 25° C. for 3 hours, a mixture of Anti-His Eu—W1024 and anti-GST allophycocyanin was then added to assay sample wells at final concentrations of 10 nM and 50 nM, respectively, and the reaction incubated for an additional 1.5 hours. […] Compounds that facilitate disruption of a K-Ras: RAF complex were identified as those eliciting a decrease in the TR-FRET ratio relative to DMSO control wells."}, "[2]": {"target": "KRAS G13D binding to BRAF RBD (Homo sapiens (Human), UniProt P01116+P62937, G13D)", "sequence (P01116 other isoform, or with tags, fused parts or gaps G13D)": "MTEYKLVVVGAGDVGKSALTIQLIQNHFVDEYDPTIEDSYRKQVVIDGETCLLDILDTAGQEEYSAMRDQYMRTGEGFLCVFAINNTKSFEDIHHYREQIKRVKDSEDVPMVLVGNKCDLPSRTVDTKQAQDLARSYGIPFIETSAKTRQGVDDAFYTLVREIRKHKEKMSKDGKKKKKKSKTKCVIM", "sequence (P62937 whole entry)": "as the sequence (P62937 whole entry) above", "test": "Ras-Raf disruption/FRET/MOA assay, KRAS G13D", "format": "biochemical", "text": "as §1, §2, §3"}, "[3]": {"system": "NCI-H358 (K-Ras G12C)", "test": "CellTiter-Glo cell viability assay, NCI-H358", "format": "cell-based, human", "details": "Homo sapiens, NCI-H358, 120 h, 5-day treatment; read-out: H358 Cell Viability assay data (K-Ras G12C, IC50)", "outline": "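NCI-H358 (K-Ras G12C) cells treated with compound dispensed directly into plates. CellTiter-Glo luminescence read on day 5 after ~30 min equilibration to room temperature. Signal normalised to DMSO average ×100, then fitted with a four-parameter logistic model.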"}}}
{"smiles": "CCn1c(-c2cccnc2[C@H](C)OC)c2c3cc(ccc31)-c1csc(n1)C[C@H](NC(=O)[C@H](C(C)C)N1CC[C@]3(CCN(C(=O)C#CC(C)(C)N(C)C)C3)C1=O)C(=O)N1CCC[C@H](N1)C(=O)OCC(C)(C)C2", "note": "(single isomer, unassigned) [Compound A425]", "values": [{"measurement": "IC50", "setting": "[1]", "value": "10 to 100", "unit": "nM"}, {"measurement": "IC50", "setting": "[2]", "value": "> 10", "unit": "µM"}]}
{"smiles": "CC#CC(=O)N1CC[C@]2(CCN([C@H](C(=O)N[C@H]3Cc4cccc(c4)-c4ccc5c(c4)c(c(-c4cccnc4[C@H](C)OC)n5CC)CC(C)(C)COC(=O)[C@@H]4CCCN(N4)C3=O)C(C)C)C2=O)C1", "note": "(single isomer, unassigned) [Compound A426]", "values": [{"measurement": "IC50", "setting": "[1]", "value": "1000 to 10000", "unit": "nM"}, {"measurement": "IC50", "setting": "[2]", "value": "> 10", "unit": "µM"}]}
{"smiles": "C=CC(=O)N1CC[C@H](C(=O)N(C)[C@H](C(=O)N[C@H]2Cc3cc(O)cc(c3)-c3ccc4c(c3)c(c(-c3cccc(CN(C)C)c3)n4CC)CC(C)(C)COC(=O)[C@@H]3CCCN(N3)C2=O)C(C)C)C1", "note": "[Compound A106]", "values": [{"measurement": "IC50", "setting": "[1]", "value": "1000 to 10000", "unit": "nM"}, {"measurement": "IC50", "setting": "[2]", "value": "> 10", "unit": "µM"}, {"measurement": "IC50", "setting": "[3]", "value": "100 to 1000", "unit": "nM"}]}
{"smiles": "CCn1c(-c2cccnc2COC)c2c3cc(ccc31)-c1cc(C)cc(c1)C[C@H](NC(=O)[C@@H](C(C)C)N(C)C(=O)[C@H]1CCN(C(=O)C#CCN(C)C)C1)C(=O)N1CCC[C@H](N1)C(=O)OCC(C)(C)C2", "note": "[Compound A156]", "values": [{"measurement": "IC50", "setting": "[1]", "value": "100 to 1000", "unit": "nM"}, {"measurement": "IC50", "setting": "[2]", "value": "1 to 10", "unit": "µM"}]}
{"smiles": "CCn1c(-c2cccnc2COC)c2c3cc(ccc31)-c1cc(O)cc(c1)C[C@H](NC(=O)[C@H](C(C)C)N(C)C(=O)[C@H]1CCN(C(=O)/C=C\\CN(C)C)C1)C(=O)N1CCC[C@H](N1)C(=O)OCC(C)(C)C2", "note": "[Compound A161]", "values": [{"measurement": "IC50", "setting": "[1]", "value": "100 to 1000", "unit": "nM"}, {"measurement": "IC50", "setting": "[2]", "value": "1 to 10", "unit": "µM"}]}
{"smiles": "CCn1c(-c2cccnc2[C@H](C)OC)c2c3cc(ccc31)-c1cc(cc(C(F)F)c1)C[C@H](NC(=O)[C@@H](COC1CN(C(=O)C#CC(C)(C)N(C)C)C1)C(C)C)C(=O)N1CCC[C@H](N1)C(=O)OCC(C)(C)C2", "note": "[Compound A404]", "values": [{"measurement": "IC50", "setting": "[1]", "value": "100 to 1000", "unit": "nM"}, {"measurement": "IC50", "setting": "[2]", "value": "> 10", "unit": "µM"}]}
{"smiles": "CCn1c(-c2cccnc2[C@H](C)OC)c2c3cc(ccc31)-c1cccc(c1)C[C@H](NC(=O)[C@H](C(C)C)N1CC[C@]3(CCN(C(=O)C#CC(C)(C)N(C)C)C3)C1=O)C(=O)N1CCC[C@H](N1)C(=O)OCC(C)(C)C2", "note": "[Compound A414]", "values": [{"measurement": "IC50", "setting": "[2]", "value": "> 10", "unit": "µM"}]}
